Measurements from the supplement of paper PMC7108870.

Assays:
HEK293sieSTAT3(Y640F) [1] = test: drug sensitivity score (DSS), cytotoxicity CellTox Green (DSS (dimensionless)); higher = more cytotoxic; extreme values may be limits of the assay; conditions: 72 h; STAT3 variant: Y640F (constitutively active)
Summary of the method: (§1)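 For 72 hours at 37°C and 5% CO2, HEK293 cells overexpressing wild-type or mutant STAT3 and carrying a STAT3-dependent luciferase reporter were cultured on compounds at 5 concentrations in 10-fold dilutions. CellTox Green and then CellTiter-Glo signals were read, normalised to negative and positive control wells, and converted in Breeze into a drug sensitivity score based on dose-response curve area. Values are from one representative of two experiments.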

HEK293sieSTAT3(wt) [2] = test: as above; conditions: 72 h; STAT3 variant: wild type
Summary of the method: as §1

HEK293sieSTAT3(Y640F) [3] = test: drug sensitivity score (DSS), viability CellTiter-Glo (DSS (dimensionless)); higher = more growth inhibition; extreme values may be limits of the assay; conditions: 72 h; STAT3 variant: Y640F (constitutively active)
Summary of the method: as §1

HEK293sieSTAT3(wt) [4] = test: as above; conditions: 72 h; STAT3 variant: wild type
Summary of the method: as §1

SMILES	drug sensitivity score (HEK293sieSTAT3(Y640F) [1])	drug sensitivity score (HEK293sieSTAT3(wt) [2])	drug sensitivity score (HEK293sieSTAT3(Y640F) [3])	drug sensitivity score (HEK293sieSTAT3(wt) [4])
CCOC(=O)CCNc1cc(N2CCc3ccccc3CC2)nc(-c2ccccn2)n1 [GSK-J4] (top concentration tested 100000 nM)	10.8	10.9	18.8	19.4
C[C@@H]1C=C2C(=O)O[C@@H]3CC[C@H](C1)[C@]23O [Galiellalactone] (top concentration tested 25000 nM)	0.48	3.45	4.57	4.61
Cc1cccc(-c2nn3c(c2-c2ccnc4ccc(C(N)=O)cc24)CCC3)n1 [Galunisertib] (top concentration tested 1000 nM)	1.47	0	0	0
Cc1cc(Nc2cc(CN3CCOCC3)c3nc(C)c(Cc4ccc(Cl)cc4F)n3n2)n[nH]1 [Gandotinib] (top concentration tested 10000 nM)	2.66	6.79	5.34	8.78
CC(C)c1cc(-c2n[nH]c(=O)n2-c2ccc3c(ccn3C)c2)c(O)cc1O [Ganetespib] (top concentration tested 1000 nM)	6.77	23.1	20.6	27.4
CN(C)C1CCN(C(=O)c2ccc(NC(=O)Nc3ccc(-c4nc(N5CCOCC5)nc(N5CCOCC5)n4)cc3)cc2)CC1 [Gedatolisib] (top concentration tested 1000 nM)	0	0.82	12.9	9.54
COc1cc2ncnc(Nc3ccc(F)c(Cl)c3)c2cc1OCCCN1CCOCC1 [Gefitinib] (top concentration tested 10000 nM)	0	1.5	1.88	3.96
Nc1ccn([C@@H]2O[C@H](CO)[C@@H](O)C2(F)F)c(=O)n1 [Gemcitabine] (top concentration tested 1000 nM)	2.77	4.58	14.6	19.5
CCN(CC)Cc1ccc2cc(COC(=O)Nc3ccc(C(=O)NO)cc3)ccc2c1 [Givinostat] (top concentration tested 1000 nM)	4.23	6.08	10.8	11.6
CN1CC[C@@H](NC(=O)Nc2ccc(C#N)cc2)C[C@@H]1c1nc2ccccc2[nH]1 [Glasdegib] (top concentration tested 1000 nM)	0	0	3.01	0
CN1CCN(C2CCN(C(=O)Nc3cc(Oc4ccc(NC(=O)C5(C(=O)Nc6ccc(F)cc6)CC5)c(F)c4)ccn3)CC2)CC1 [Golvatinib] (top concentration tested 2500 nM)	0	0.24	2.77	1.49
CC(C)C[C@H](NC(=O)[C@@H](COC(C)(C)C)NC(=O)[C@H](Cc1ccc(O)cc1)NC(=O)[C@H](CO)NC(=O)[C@H](Cc1c[nH]c2ccccc12)NC(=O)[C@H](Cc1cnc[nH]1)NC(=O)[C@@H]1CCC(=O)N1)C(=O)N[C@@H](CCCNC(=N)N)C(=O)N1CCC[C@H]1C(=O)NNC(N)=O [Goserelin] (top concentration tested 10000 nM)	0	0	2.1	1.57
O=S(=O)(c1cccc2c(O)nccc12)N1CCCNCC1 [Hydroxyfasudil] (top concentration tested 37500 nM)	0	0	0.45	5.7
NC(=O)NO [Hydroxyurea] (top concentration tested 100000 nM)	0	0	4.19	1.75
COc1cc2c(cc1-c1c(C)noc1C)ncc1[nH]c(=O)n([C@H](C)c3ccccn3)c12 [I-BET151] (top concentration tested 10000 nM)	2.48	6.67	8.85	5.57
O=C(O)c1ccc(O)c2ncccc12 [IOX-1] (top concentration tested 100000 nM)	0	0	1.18	2.26
O=C(O)CNC(=O)c1c(O)c2ccccc2n(Cc2ccccc2)c1=O [IOX-2] (top concentration tested 50000 nM)	0	0	0	2.91

SMILES	drug sensitivity score (HEK293sieSTAT3(Y640F) [1])	drug sensitivity score (HEK293sieSTAT3(wt) [2])	drug sensitivity score (HEK293sieSTAT3(Y640F) [3])	drug sensitivity score (HEK293sieSTAT3(wt) [4])
C=CC(=O)N1CCC[C@@H](n2nc(-c3ccc(Oc4ccccc4)cc3)c3c(N)ncnc32)C1 [Ibrutinib] (top concentration tested 1000 nM)	0.94	3.43	0.59	2.79
C#Cc1cccc(Nc2ncnc3cc4c(cc23)OCCOCCOCCO4)c1 [Icotinib] (top concentration tested 10000 nM)	0	0.13	0.77	1.11
CC(=O)[C@]1(O)Cc2c(O)c3c(c(O)c2[C@@H](O[C@H]2C[C@H](N)[C@H](O)[C@H](C)O2)C1)C(=O)c1ccccc1C3=O [Idarubicin] (top concentration tested 1000 nM)	7.05	10.7	27.1	26.9
COc1cc(C(=O)O)ccc1NC(=O)[C@@H]1N[C@@H](CC(C)(C)C)[C@](C#N)(c2ccc(Cl)cc2F)[C@H]1c1cccc(Cl)c1F [Idasanutlin] (top concentration tested 10000 nM)	0.11	0	4.92	3.61
CC[C@H](Nc1ncnc2[nH]cnc12)c1nc2cccc(F)c2c(=O)n1-c1ccccc1 [Idelalisib] (top concentration tested 10000 nM)	0	0.23	1.95	2.04
O=P1(NCCCl)OCCCN1CCCl (stereo unspecified) [Ifosfamide] (top concentration tested 10000 nM)	0	0	0	0
Cc1ccc(NC(=O)c2ccc(CN3CCN(C)CC3)cc2)cc1Nc1nccc(-c2cccnc2)n1 [Imatinib] (top concentration tested 10000 nM)	0.42	5.22	4.88	7.13
CC(C)Cn1cnc2c(N)nc3ccccc3c21 [Imiquimod] (top concentration tested 2500 nM)	0	0	4.36	2.55
O=C(Nc1ccncc1)C(=O)c1cn(Cc2ccc(Cl)cc2)c2ccccc12 [Indibulin] (top concentration tested 10000 nM)	1.19	5.57	10.7	16
NC(=O)c1ccc(I)c([N+](=O)[O-])c1 [Iniparib] (top concentration tested 10000 nM)	0	0	0	0
CC(C)NC[C@@H](C(=O)N1CCN(c2ncnc3c2[C@H](C)C[C@H]3O)CC1)c1ccc(Cl)cc1 [Ipatasertib] (top concentration tested 10000 nM)	0	0.07	14.6	16.7
CCc1c2c(nc3ccc(OC(=O)N4CCC(N5CCCCC5)CC4)cc13)-c1cc3c(c(=O)n1C2)COC(=O)[C@]3(O)CC [Irinotecan] (top concentration tested 10000 nM)	2.17	6.44	12.2	14.5
CCC(C)n1ncn(-c2ccc(N3CCN(c4ccc(OCC5COC(Cn6cncn6)(c6ccc(Cl)cc6Cl)O5)cc4)CC3)cc2)c1=O (stereo unspecified) [Itraconazole] (top concentration tested 5000 nM)	4.55	7.01	6.28	5.54
C/C(=C\c1csc(C)n1)[C@@H]1C[C@@H]2O[C@]2(C)CCC[C@H](C)[C@H](O)[C@@H](C)C(=O)C(C)(C)[C@@H](O)CC(=O)N1 [Ixabepilone] (top concentration tested 1000 nM)	0.83	3.56	6.8	8.23
CCCNC(=O)Nc1ccc(Oc2ncnc3cc(OC)c(OC)cc23)cc1Cl [KRN-633] (top concentration tested 2500 nM)	0	0.01	0.57	0.2
O=C(c1ccc(/C=C/c2n[nH]c3ccccc23)cc1)N1CCNCC1 [KW-2449] (top concentration tested 2500 nM)	0	0.89	1.97	0.3
O=C(Cc1ccc(-c2ccc(OCCN3CCOCC3)cc2)cn1)NCc1ccccc1 [KX2-391] (top concentration tested 10000 nM)	4.02	19.6	19.9	23.2
